Laboratory results: patent US20190282600A1, “COMBINATION THERAPIES TARGETING TERT DEPENDENCY FOR CANCER THERAPY” (The Wistar Institute of Anatomy and Biology, priority 2018, published 2019)

Legend:
[1] = literature; cited from earlier work
[2] = literature; cited from earlier work; remark: listed apart in the source
KRAS mutant HCT116 cells = experiment: Cell death by Annexin V/PI flow cytometry; assay type: cell-based; settings: 1 μM 6-thio-dG, 5 μM Gam
Experimental: (§1) FIGS. 5a to 5e provide bar graphs showing that combination treatment with 6-Thio-dG and Gamitrinib (Gam) triggers death selectively in NRAS mutant tumor cells. NRAS-WT/BRAF-WT melanoma cells (FIG. 5a), NRAS-WT/BRAF-mut melanoma cells (FIG. 5b), NRAS mutant neuroblastoma cells (FIG. 5c), NRAS-WT/KRAS-mutant colon cancer cells (FIG. 5d), and NRAS-WT/KRAS-mutant lung cancer cells were treated with 1 μM 6-thio-dG for 5 days (FIG. 5e). At day 5, culture medium was replaced and cells treated with 1 μM 6-thio-dG plus 5 μM Gam for two more days. Cells were stained with Annexin V and PI and percent cell death was determined by FACS. Data represent average of three independent experiments +/−SEM; p values were calculated using un-paired Student's t-test; *p<0.05; **p<0.001.
(§2) Cells were seeded in 96-well plates and treated with drugs. After 6 days, cell viability was assessed following 6h incubation with […] Alamar Blue (ThermoFisherScientific, Philadelphia, Pa.) by measuring fluorescence using an EnVision Xcite Multilabel plate reader (Perkin Elmer, Waltham, Mass.). Cell death was determined by flow cytometry using PSVue-643 (Molecular Targeting Technologies) or Annexin V (640919, Biolegend, San Diego, Calif.) and Propidium Iodide (Sigma) staining. Samples were analyzed using a BD LSRII flow cytometer (BD Biosciences, San Jose, Calif.).

[3] = tested on: NRAS mutant SKNAS neuroblastoma cells; experiment: Cell death by Annexin V/PI flow cytometry; assay type: cell-based; settings: 1 μM 6-thio-dG, 5 μM Gam, single agents or in combination
Experimental: as §1, §2

KRAS mutant A549 cells = experiment: Cell death by Annexin V/PI flow cytometry; assay type: cell-based; settings: 1 μM 6-thio-dG, 5 μM Gam
Experimental: as §1, §2

[4] = tested on: NRAS mutant melanoma cells; experiment: Cell death by flow cytometry (PSVue or Annexin V/PI); assay type: cell-based, Human; settings: cells transduced with TERT shRNA, 7 days post infection 5 μM Gamitrinib for 48 h
Experimental: FIGS. 2a to 2c show NRAS^mut melanoma cells (FIG. 2a), BRAF-V600E/NRAS mutant cells derived from melanoma patients resistant to BRAF/MEK inhibitors (FIG. 2b), or non-transformed melanocytes and fibroblasts (FIG. 2c) were treated with 6-thio-dG for 7 days. Cell viability was measured by Alamar Blue assay and calculated relative to DMSO-treated cells. […] Cell death was assessed by PSVUe staining. Percent of apoptotic cells is shown. […] Mean TRF length expressed as kilobase pairs is indicated at the bottom. […] FIG. 2g provides a bar graph showing that DNA damage was assessed by γH2AX staining. Data represent average from three independent experiments ±SEM. *p<0.05; **p<0.01; ***p<0.005 in unpaired Student's t-test. As presented in FIG. 2h, mice bearing established WM3000 or M93-047 NRAS^mut tumors were treated with vehicle control or 6-thio-dG (2.5 mg/kg i.p; q.d). Tumor volume was measured and average tumor volume (n=4) ±SEM was plotted vs. time.
FIGS. 3a to 3g provides graphs showing that telomere dysfunction enhances oxidative stress leading to upregulation of an antioxidant program. […] Mitochondrial superoxide production was measured by MitoSox Red fluorescence (FIGS. 3c, and 3d) and expressed as fluorescence relative to vector or DMSO controls. […] FIG. 3f provides a bar graph showing that SOD2 was silenced using shRNA. Transduced M93-047 cells were treated with DMSO or 1 μM of 6-thio-dG and cell death was assessed by Annexin V/PI straining. As presented in FIG. 3g, M93-047 cells were transduced with a SOD2 lentiviral construct or empty vector control (pLX304). Transduced cells were treated with increasing doses (1, 2.5 and 5 μM) of 6-thio-dG for 7 days and cell death was assessed. Data represent average from three independent experiments ±SEM. *p<0.05; **p<0.01; ***p<0.005 in unpaired Student's t-test.
FIGS. 4a to 4e provides bar graphs showing that induction of telomere and mitochondrial dysfunction triggers cell death in NRAS mutant melanoma. […] Cell death was assessed by Annexin V and PI staining. […] Cells were stained with Annexin V and PI and percent cell death was determined by flow cytometry. […] P values were calculated using unpaired Student's t-test; * p<0.05; *** p<0.005.
As presented in FIG. 16a, SOD2 was silenced using shRNA. Transduced WM3000 cells were treated with DMSO or 1 μM of 6-thio-dG and cell death was assessed by Annexin V/PI straining. […] Transduced cells were treated with increasing doses (1, 2.5 and 5 μM) of 6-thio-dG for 10 days and cell death was assessed. […]
In FIG. 17a, NRAS^mut melanoma cells were treated with 6-thio-dG (1 μM) for 7 days total. […] Percent cell death was determined by flow cytometry following staining of cells with Annexin V and Propidium iodide. […]

[5] = tested on: prostate, breast and lung cancer, BRAF-V600E-mutant melanoma; settings: Chae et al., 2012; cited from earlier work
NRAS mutant cells = settings: Chae et al., 2012; cited from earlier work
SOD2 = settings: Siegelin et al., 2011; cited from earlier work
[6] = tested on: NRAS-WT/BRAF-WT melanoma cells; experiment: Cell death by Annexin V/PI flow cytometry; assay type: cell-based, Human; settings: 1 μM 6-thio-dG, 5 μM Gam, single agents or in combination
Experimental: as §1, §2

[7] = tested on: BRAF mutant melanoma cells; experiment: Cell death by Annexin V/PI flow cytometry; assay type: cell-based, Human; settings: 1 μM 6-thio-dG, 5 μM Gam, single agent or in combination
Experimental: as §1, §2

[8] = tested on: NRAS mutant melanoma cells; experiment: Telomere dysfunction-induced foci (TIF) assay, IF-FISH; assay type: cell-based, Human; settings: WM3000 cells transduced with TERT shRNA, NAC 1 mM for 7 days
Experimental: NRAS mutant melanoma cells WM3000 were transduced with TERT shRNA and treated with NAC (mM) for 7 days. […] Representative images are shown. (scale bar=10 μm). Quantification of TIF positive cells is plotted in FIG. 13b. Cells were scored as TIF positive when three or more g-H2AX foci (green) were co-localizing with telomere foci (red). Data represent average of thirteen fields imaged +/−SD.
NRAS^mut melanoma cells were treated with 6-thio-dG for 6, 12 or 18 days. As presented in FIG. 15a, relative cell number was assessed by Crystal Violet assay and calculated relative to DMSO-treated cells. Data represent average of three independent experiments +/−SD. […] NRAS^mut cells were treated with 6-thio-dG for 7 days and telomere induced foci (TIF) was determined by indirect immunofluorescence combined with fluorescence in situ hybridization (FISH) (FIG. 15c). […] Quantification of TIF assay is plotted in FIG. 15d. Cells were scored as TIF positive when four or more γ-H2AX foci (green, center row of FIG. 15c labelled as γH2AX) were co-localizing with telomere foci (red, top row of FIG. 15c labelled as Telomeres). […] P values were calculated by unpaired Student's t-test.
For TIF analysis, indirect immunofluorescence (IF) combined with fluorescence in situ hybridization (FISH) was performed as previously described with some modifications. […] TIF were quantified from at least three independent experiments.

[9] = tested on: NRAS mutant melanoma spheroids; experiment: 3D collagen-embedded tumor spheroids, Live/Dead staining; assay type: cell-based, Human; settings: 6-thio-dG 5 μM and Ganetespib 5 μM, day 7
Experimental: FIGS. 6a to 6e provide results showing that combining 6-thio-dG and Gamitrinib inhibits the growth of 3D melanoma spheroids and NRAS-mutant xenograft tumors. […] 4a to 4e. On day 7, spheroids were stained with Calcein AM (live cells; green) and EtBr (dead cells; red) and imaged using an inverted microscope (4X; scale bar=250 μm). […] P values were calculated using unpaired Student's t-test. *p<0.05, ** p<0.01, ***p<0.005, when comparing vehicle control vs. combination treatment groups. As presented in FIG. 6d, treatment was discontinued after 14 days, and mice were followed until tumor volume reached a preset volume (1500 mm^3). Kaplan Meier survival curves of mice treated for 14 days. p-values were calculated by Mantel-Cox log-rank test; *p<0.05, **p<0.01, ***p<0.005. Animal weight (grams) before treatment (Start of TX) and at the end of the study (End of TX) was assessed, recorded for every mouse enrolled in the study and plotted in FIG. 6e. Mean and SEM are depicted (n=7 mice/treatment group). Statistical significance was assessed by unpaired Student's t-test.
In FIG. 17a, NRAS^mut melanoma cells were treated with 6-thio-dG (1 μM) for 7 days total. At day 5, culture medium was replaced and cells were treated with 1 μM 6-thiodG plus 1 mM Phenformin for two more days. Percent cell death was determined by flow cytometry following staining of cells with Annexin V and Propidium iodide. […]

## imetelstat
[1]
  activity: limited activity
[2]
  efficacy: efficacy

## Gamitrinib
KRAS mutant HCT116 cells
  cell death: did not induce substantial death
[3]
  cell death: triggered significant death
KRAS mutant A549 cells
  cell death: did not induce substantial death
[4]
  cell death (Annexin V/PI): enhanced the cytotoxic effects of Gamitrinib
[5]
  mitochondrial membrane potential: rapid and complete loss of mitochondrial membrane potential
NRAS mutant cells
  anti-cancer activity as a single agent: limited activity
SOD2
  SOD2 levels: downregulate SOD2 levels
[6]
  cell death: did not induce cell death
[7]
  cell death: 75-80%

## CC(=O)N[C@@H](CS)C(=O)O [NAC, N-acetyl-L-cysteine]
[8]
  number of TIF: attenuated the number of TIF

## CC(C)c1cc(-c2n[nH]c(=O)n2-c2ccc3c(ccn3C)c2)c(O)cc1O [ganetespib]
[9]
  enhancement of 6-Thio-dG efficacy in spheroids: did not enhance the efficacy of 6-Thio-dG
